Results as given in US9540355B2, “Irciniastatin analogues” (priority 2013, dated 2017).

What was measured:
MDA-MB-435 = details: breast cancer MDA-MB-435; read-out: LC50 (the source's name); cited from earlier work
[1] = tested on: P388 murine lymphocytic leukemia cell line; details: cited from earlier work
HCT-116 = details: colon cancer HCT-116; read-out: LC50 (the source's name); cited from earlier work
DU-145 = details: prostate DU-145; cited from earlier work
[2] = tested on: IMR-90 human fibroblast cells; experiment: IMR-90 cytotoxicity assay; type: cell-based; details: IMR-90, 72 h, quiescent non-dividing cells, 0.1% FBS, 3 days incubation, read-out: IC50 (nM) Quiescent IMP-90
Excerpt: IMR-90 Cytotoxicity Assay.
To evaluate the effect of compounds of the invention on non-proliferating normal cells, an in vitro cytotoxicity assay developed to distinguish between true antiproliferative activity and general cellular cytotoxicity unrelated to proliferation was used. Rudolph-Owen L A, Salvato K, Cheng C, Wu J, Towle M J and Littlefield B A: A 96-well plate cell-based assay to quantify undesired cytotoxic effects against quiescent non-dividing cells. Proc Amer Assoc Cancer Res 45: 264-265, 2004. In brief, IMR-90 human fibroblast cells, obtained from ATCC, were grown for 4 days to confluency in MEM containing 10% FBS and supplemented with L-glutamine, penicillin/streptomycin. After washing, the medium was replaced with complete MEM containing 0.1% FBS and the cells were cultured for 3 additional days to achieve complete quiescence. A compound of the invention or vehicle control was then added in the continued presence of 0.1% FBS, followed by incubation for 3 days at 37° C. Cell viability was assessed by the measurement of cellular ATPlevels using CellTiter-Glo reagent (Promega).

For C=C(C)C[C@H](OC)[C@H](O)C(=O)N[C@@H](OC)[C@@H]1C[C@@H](O)C(C)(C)[C@@H](C[C@H](O)[C@@H](C)[C@H]2Cc3c(C)c(O)cc(O)c3C(=O)O2)O1 [Irciniastatin A, (+)-Irciniastatin A], the CC50 (MDA-MB-435) is given as < 2.5 nM, the “Growth Inhibition of Cancer Cell Lines (GI50)” value [1] is given as 4.13 ng/mL and the CC50 (HCT-116) is given as < 2.5 nM. The “Growth Inhibition of Cancer Cell Lines (GI50)” value (DU-145) was 2.4 ng/mL and the IC50 [2] was 27 nM.
